Tests used:
[1] = target: T1, Pancreatic triacylglycerol lipase (Homo sapiens, UniProt P16233); assay: Inhibition of pancreatic lipase (unknown origin) by spectrophotometeric analysis
T1 sequence (P16233 whole entry): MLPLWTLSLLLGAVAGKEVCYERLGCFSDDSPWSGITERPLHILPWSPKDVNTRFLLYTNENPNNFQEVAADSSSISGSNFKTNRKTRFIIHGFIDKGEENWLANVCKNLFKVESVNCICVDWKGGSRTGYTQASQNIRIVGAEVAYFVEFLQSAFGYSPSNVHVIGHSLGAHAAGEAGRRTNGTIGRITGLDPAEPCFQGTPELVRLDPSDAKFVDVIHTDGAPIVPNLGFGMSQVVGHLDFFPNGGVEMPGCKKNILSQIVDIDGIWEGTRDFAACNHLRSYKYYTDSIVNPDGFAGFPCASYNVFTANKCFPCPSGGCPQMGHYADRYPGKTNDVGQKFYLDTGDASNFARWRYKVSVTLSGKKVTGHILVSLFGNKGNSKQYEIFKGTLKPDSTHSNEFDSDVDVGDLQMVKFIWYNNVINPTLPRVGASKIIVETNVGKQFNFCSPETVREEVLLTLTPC

[2] = target: T2, Pancreatic triacylglycerol lipase (Homo sapiens) (UniProt P16233)
T2 sequence (whole entry): T1 sequence (P16233 whole entry)
Description: Binding affinity to pancreatic lipase (unknown origin) assessed as Stem-Volmer quenching constant by fluorescence quenching based spectrophotometer analysis

[3] = target: T2, Pancreatic triacylglycerol lipase (Homo sapiens); remark: listed apart in the source
Description: Binding affinity to pancreatic lipase (unknown origin) assessed as quenching constant by fluorescence quenching based spectrophotometer analysis

| SMILES | IC50 [1] [µM] | KSV [2] | Kq [3] |
| --- | --- | --- | --- |
| O=C1/C(=C/c2ccccc2)Oc2cc(O)cc(O)c21 | 58.8 | 7.16 10^4L/mol | 4.5 10^13L/mol/s |
| O=c1c(O)c(-c2ccc(O)c(O)c2)oc2cc(O)cc(O)c12 |  | 13.3 10^4L/mol | 8.35 10^13L/mol/s |

From ChEMBL document CHEMBL5356957, “Design, synthesis, biological evaluation and molecular docking of alkoxyaurones as potent pancreatic lipase inhibitors” (Bioorg Med Chem Lett, 2024)
